Laboratory results taken from patent publication US20250195518A1, “INDAZOLE COMPOUND AND PHARMACEUTICAL USE THEREOF” (Japan Tobacco Inc., priority 2022, published 2025).

Tested on: mdx mice
Experiment: not given
Details: Non-patent Document 7; cited from earlier work

Row | Structure (SMILES) | muscle strength | myonecrosis
1 | c1ccc(C(OC2CCN(CCCc3nn[nH]n3)CC2)c2ccccc2)cc1 [HQL-79] | increases muscle strength | suppresses myonecrosis

Target: T1, human H-PGDS (Homo sapiens (Human), UniProt O60760)
Experiment: Human H-PGDS inhibitory activity (enzyme reaction with PGH2, PGD2 ELISA)
Type: biochemical
Details: human recombinant H-PGDS 1.6 μg/mL, PGH2 50 μmol/L
Procedure: Using the human H-PGDS expression plasmid DNA (pET28b/hH-PGDS) as a template, PCR (Polymerase Chain Reaction) was performed to amplify a DNA fragment containing human H-PGDS with a NotI recognition cleavage sequence immediately before the translation initiation codon and a BamHI recognition cleavage sequence immediately below the translation end codon. The purified DNA fragment was fused to pET15b (manufactured by Merck KGaA, model number 69661) digested with NotI and BamHI, by using In-Fusion HD Cloning Kit (manufactured by Takara Bio Inc., model number 639649). […] The base sequence of human H-PGDS cloned into the vector was determined by the Dye Terminator method using BigDye Terminator v3.1 Cycle Sequencing Kit (manufactured by Applied Biosystems, model number 4337456). The determined sequence was identical to the sequence of the protein translation region of human H-PGDS (Accession number su NM_014485.2) registered in the NCBI Reference Database. […]
The protein concentration of the human H-PGDS purified fraction was measured with Pierce 660 nm Protein Assay Reagent (manufactured by Thermo Fisher Scientific Inc., model number 22660). […] Human H-PGDS was detected by Western blotting using a rabbit anti-H-PGDS polyclonal antibody (manufactured by LifeSpan BioSciences, Inc, model number LS-B6886). […]

T1 sequence (O60760 whole entry): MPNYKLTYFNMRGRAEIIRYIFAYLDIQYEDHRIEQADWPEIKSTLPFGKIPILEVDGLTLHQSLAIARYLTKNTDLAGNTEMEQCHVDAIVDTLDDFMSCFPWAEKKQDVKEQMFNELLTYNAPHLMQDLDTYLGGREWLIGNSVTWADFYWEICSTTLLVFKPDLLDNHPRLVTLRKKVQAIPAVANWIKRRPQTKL

Row | Structure (SMILES) | IC50 [nM]
2 | C[C@@H](CC(=O)O)C12CCC(NC(=O)N3CCC(c4ncc(F)c5[nH]cc(F)c45)CC3)(CC1)CC2 (single isomer, unassigned) [enantiomer A] | 5
3 | C[C@H](CC(=O)O)C12CCC(NC(=O)N3CCC(c4ncc(F)c5[nH]cc(F)c45)CC3)(CC1)CC2 (single isomer, unassigned) [enantiomer B] | 6

Target: T1, human H-PGDS
Experiment: Human H-PGDS binding inhibitory activity (AlphaLISA antagonistic assay)
Details: His-tagged human H-PGDS 0.3 nmol/L, biotinylated H-PGDS inhibitor 45 nmol/L
Procedure: Experimental Example 1: Measurement of Human H-PGDS Binding Inhibitory Activity
The H-PGDS binding inhibitory activity of the test compound was measured by AlphaLISA antagonistic assay. A specific protocol is as follows.
In an AlphaPlate-384 Shallow well plate (Cat. 6008350, PerkinElmer) were added and mixed 240 nL/well of DMSO solution as a compound solution or a solvent control, 3 µL/well (final concentration: 45 nmol/L) of biotinylated H-PGDS inhibitor (see below for the production method) diluted with […] DMSO-containing Assay Buffer (50 mM HEPES-NaOH (pH 7.5), 2 mM GSH, 150 mM NaCl, 2 mM MgCl2, 0.005% Surfactant P20), and 2 μL/well (final concentration: 0.3 nmol/L) of His-tagged human H-PGDS (Cat. ATGP1557, ATgen) diluted with Assay Buffer. As a blank, 2 μL/well of Assay Buffer was added instead of His-tagged human H-PGDS. This plate was allowed to stand at room temperature for 60 min, and Nickel Chelate AlphaLISA Acceptor Beads (Cat. AL108C, Perkin Elmer) at 5 μL/well (final concentration: 20 μg/mL) were added and mixed. After allowing to stand at room temperature for 30 min under shading, AlphaScreen Streptavidin donor beads (Cat. 6760002S, Perkin Elmer) were added at 5 μL/well (final concentration: 30 μg/mL) and mixed. After allowing to stand at room temperature for 60 min under shading, AlphaLISA signals (excitation wavelength: 680 nm, measurement wavelength: 615 nm) were measured using Enspire (Perkin Elmer).
The H-PGDS binding inhibitory activity (inhibitory rate) of each test compound was calculated as follows, and the IC50 value was calculated from the inhibitory rate at two concentrations sandwiching 50%.

Row | Structure (SMILES) | IC50 [nM]
4 | Cc1nn(-c2ncc(C(=O)N[C@H]3CC[C@H](CC(C)(C)O)CC3)cn2)c2cnccc12 [Example 3, N-(Trans-4-(2-hydroxy-2-methylpropyl)cyclohexyl)-2-(3-methyl-1H-pyrazolo[3,4-c]pyridin-1-yl)pyrimidine-5-carboxamide] | 21
5 | Cc1nn(-c2ccc(C(=O)N[C@H]3CC[C@H](O)CC3)cn2)c2cc(F)ccc12 [Example 39] | 71
6 | Cc1nc([C@H]2CC[C@H](NC(=O)c3cnc(-n4nc(C)c5ccc(F)cc54)nc3)CC2)no1 [Example 150] | 14
7 | Cc1nn(-c2ccc(C(=O)NC3CCCCC3)cc2)c2ccccc12 [Example 11] | 171
8 | Cc1nn(-c2ncc(C(=O)N[C@H]3CC[C@H](C(C)(C)O)CC3)cn2)c2c(C#N)cccc12 [Example 95] | 144
9 | Cc1nn(-c2ccc(C(=O)N[C@H]3CC[C@H](C(C)(C)O)CC3)cn2)c2cc(F)ccc12 [Example 40] | 7
10 | Cc1nn(-c2ncc(C(=O)N[C@H]3CC[C@H](C(C)(C)O)CC3)cn2)c2cc(F)ccc12 [Example 1, 2-(6-fluoro-3-methyl-1H-indazol-1-yl)-N-(trans-4-(2-hydroxypropan-2-yl)cyclohexyl)pyrimidine-5-carboxamide] | 3
11 | CC(C)(O)C12CC(NC(=O)c3cnc(-n4nc(C(F)F)c5ccccc54)nc3)(C1)C2 [Example 255] | 7
12 | Cc1nn(-c2ccc(C(=O)N[C@H]3CC[C@H](C(C)(C)O)CC3)cn2)c2cccc(F)c12 [Example 50] | 74
13 | CC(C)(O)[C@H]1CC[C@H](NC(=O)c2ccc(-n3nc(Cl)c4ccccc43)nc2)CC1 [Example 17] | 27
14 | CC(C)(O)[C@H]1CC[C@H](NC(=O)c2cnc(-n3nc(Cl)c4ccccc43)nc2)CC1 [Example 24] | 3
15 | CS(=O)(=O)CCCO[C@H]1CC[C@H](NC(=O)c2cnc(-n3nc(C(F)F)c4ccccc43)nc2)CC1 [Example 6, 2-(3-(difluoromethyl)-1H-indazol-1-yl)-N-(trans-4-(3-(methylsulfonyl)propoxy)cyclohexyl)pyrimidine-5-carboxamide] | 3
16 | Cc1nn(-c2ncc(C(=O)N[C@H]3CC[C@H](O)CC3)cc2F)c2ccccc12 [Example 54] | 41
17 | CC(C)(O)C(=O)N1CCC(NC(=O)c2cnc(-n3nc(C(F)F)c4ccc(F)cc43)nc2)CC1 [Example 254] | 14
18 | Cc1nn(-c2ccc(C(=O)N[C@H]3CC[C@H](O)CC3)cn2)c2c(F)cccc12 [Example 41] | 374
19 | Cc1nn(-c2ccc(C(=O)N[C@H]3CC[C@H](OC4CCS(=O)(=O)CC4)CC3)cn2)c2cc(F)ccc12 [Example 80] | 17
20 | Cc1nn(-c2ncc(C(=O)N[C@H]3CC[C@@](C)(O)CC3)cn2)c2cc(F)ccc12 [Example 204] | 14
21 | CC(C)(O)[C@H]1CC[C@H](NC(=O)c2cnc(-n3nc(C(F)(F)F)c4ccccc43)nc2)CC1 [Example 46] | 10
22 | Cc1nn(-c2ncc(C(=O)NC34CC(C(C)(C)O)(C3)C4)cn2)c2cc(F)ccc12 [Example 7, 2-(6-fluoro-3-methyl-1H-indazol-1-yl)-N-(3-(2-hydroxypropan-2-yl)bicyclo[1.1.1]pentan-1-yl)pyrimidine-5-carboxamide] | 11
23 | Cc1nn(-c2ncc(C(=O)N[C@H]3CC[C@H](O)CC3)cn2)c2cccc(F)c12 [Example 42] | 200
24 | Cc1nn(-c2ccc(C(=O)N[C@H]3CC[C@H](C(C)(C)O)CC3)cn2)c2ccccc12 [Example 15] | 12
25 | Cc1nn(-c2ncc(C(=O)N[C@H]3CC[C@H](OCC(C)(C)O)CC3)cn2)c2ccccc12 [Example 4, N-(trans-4-(2-hydroxy-2-methylpropoxy)cyclohexyl)-2-(3-methyl-1H-indazol-1-yl)pyrimidine-5-carboxamide] | 5
26 | Cc1nn(-c2ncc(C(=O)N[C@H]3CC[C@H](O)CC3)cn2)c2ccccc12 [Example 18] | 45
27 | CC(C)(O)[C@H]1CC[C@H](NC(=O)c2cnc(-n3nc(C(F)F)c4ccncc43)nc2)CC1 [Example 9, 2-(3-(difluoromethyl)-1H-pyrazolo[3,4-c]pyridin-1-yl)-N-(trans-4-(2-hydroxypropan-2-yl)cyclohexyl)pyrimidine-5-carboxamide] | 13
28 | COc1nn(-c2ncc(C(=O)N[C@H]3CC[C@H](O)CC3)cn2)c2ccccc12 [Example 27] | 225
